Earlier results on one molecule are cited in patent US20050148034A1, “Methods for identification of modulators of angiogenesis, compounds discovered thereby, and methods of treatment using the compounds” (priority 2002, published 2005).

For the series, the system named is human umbilical cord blood vessel rings. Conditions: 10^−5 M, compared with the DMSO (0.5%) diluent control; cited from earlier work.

In the case of `C[C@]12CCC(=O)C=C1CC[C@@H]1[C@@H]2[C@@H](O)C[C@@]2(C)[C@H]1CC[C@]2(O)C(=O)CO` [hydrocortisone], the inhibition of angiogenesis entry is given as “partially inhibited angiogenesis”.
